In publication PMC8316439, “An enzymatic activation of formaldehyde for nucleotide methylation” (Nature Communications, 2021):

Tests used:
ThyX [1] = molecular target: T1, ThyX (Thermotoga maritima, UniProt Q9WYT0); experiment: anaerobic methylation assay with purified ThyX (MS, […]-NMR); stopped-flow of FADH−•dUMP complex; assay type: biochemical
T1 sequence (Q9WYT0 1-220): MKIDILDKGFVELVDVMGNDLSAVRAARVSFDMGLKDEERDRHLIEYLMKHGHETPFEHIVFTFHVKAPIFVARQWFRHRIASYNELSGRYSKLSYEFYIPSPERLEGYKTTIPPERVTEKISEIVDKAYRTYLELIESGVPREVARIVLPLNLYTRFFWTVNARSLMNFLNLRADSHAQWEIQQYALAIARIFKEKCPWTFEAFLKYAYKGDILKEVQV

ThyX [2] = molecular target: T1, ThyX; experiment: stopped-flow kinetics of reduced ThyX-dUMP (kon/koff); assay type: binding

SMILES | anaerobic methylation assay with purified ThyX (MS, 13C-NMR); stopped-flow of FA (ThyX [1]) | Kd (ThyX [2]) [mM]
O=c1ccn([C@H]2C[C@H](O)[C@@H](COP(=O)(O)O)O2)c(=O)[nH]1 [dUMP] | confirmed the formation of dTMP only in the simultaneous presence of ThyX, NADPH, and CH2O | 
C=O [formaldehyde] |  | ~20
